Experimental findings from US20260258047A1, “COMPOSITIONS USEFUL FOR MODULATING SPLICING” (Skyhawk Therapeutics, Inc., priority 2023, published 2026) are described below.

A word on the IC50: it is the midpoint of a concentration-inhibition curve.

The experiment deals with ATXN3 transcripts containing exon 4. As to the kind of experiment: ATXN3 quantitative splicing assay (qPCR, E4E5 primers/probe). It counts as cell-based. Conditions: Human neuroblastoma SK-N-MC cells, 24 h treatment, qPCR of transcripts containing exon 4; read-out: ATXN3 Potency - Splicing E4E5 IC50. The protocol: Human neuroblastoma SK-N-MC cells were plated in 384-well plates at 20,000 cells/well. Twenty-four hours after plating, cells were treated with compounds for 24 h at appropriate concentrations ranging from 30 μM to 0.6 nM (0.3% DMSO). Treated cells were lysed in 15 μL of lysis buffer, and cDNA was synthesized using the Fast Advanced Cells-to-Ct kit. Two μL of each cDNA was used in qPCR reactions to confirm the exon 4 skipped transcripts of ATXN3. A second set of primers/probe E4E5 was used to detect the transcripts containing exon 4. The third set of primers/probe E8E9 was used to detect total gene level of ATXN3. The qPCR reactions were prepared in 384-well plates in 10 μL volume, using TaqMan™ Fast Advanced Master Mix with primers and probes shown in the table below. Reactions were run in a Quant Studio 6 qPCR instrument with default settings.
The primers and probes are listed below in Table 3.
(In general: Real-time PCR tracks product formation cycle by cycle.)
Take `C[C@H](F)[C@H](N)Cc1cc2c(NCc3ccncc3F)nc(Cl)nn2c1Br` [Compound 1, 6-((2R,3S)-2-amino-3-fluorobutyl)-7-bromo-2-chloro-N-((3-fluoropyridin-4-yl)methyl)pyrrolo[2,1-f][1,2,4]triazin-4-amine]: the IC50 lay in the range of 0.01 to 100 nM.

Take `Cc1c(C[C@@H](N)[C@H](C)F)cc2c(NCc3ccncc3)nc(Cl)nn12` [Compound 5, 6-((2R,3S)-2-amino-3-fluorobutyl)-2-chloro-7-methyl-N-(pyridin-4-ylmethyl)pyrrolo[2,1-f][1,2,4]triazin-4-amine]: the IC50 fell in the range of 101 to 500 nM. Regarding `Cc1c(C[C@@H](N)CC2CC2)cc2c(NCc3ccncc3F)nc(Cl)nn12` [Compound 10, (S)-6-(2-amino-3-cyclopropylpropyl)-2-chloro-N-((3-fluoropyridin-4-yl)methyl)-7-methylpyrrolo[2,1-f][1,2,4]triazin-4-amine], the IC50 fell in the range of 501 to 5000 nM. As for `C[C@H](F)[C@H](N)Cc1cc2c(NCc3ccncn3)nc(Cl)nn2c1Br` [Compound 2, 6-((2R,3S)-2-amino-3-fluorobutyl)-7-bromo-2-chloro-N-(pyrimidin-4-ylmethyl)pyrrolo[2,1-f][1,2,4]triazin-4-amine], the figure is 0.01 to 100 nM; as for `C[C@H](F)[C@H](N)Cc1cc2c(NCc3ncccc3F)nc(Cl)nn2c1Br` [Compound 3, 6-((2R,3S)-2-amino-3-fluorobutyl)-7-bromo-2-chloro-N-((3-fluoropyridin-2-yl)methyl)pyrrolo[2,1-f][1,2,4]triazin-4-amine], 501 to 5000 nM. Regarding `Cc1c(C[C@@H](N)CC2CC2)cc2c(NCc3ccncc3)nc(Cl)nn12` [Compound 8, (S)-6-(2-amino-3-cyclopropylpropyl)-2-chloro-7-methyl-N-(pyridin-4-ylmethyl)pyrrolo[2,1-f][1,2,4]triazin-4-amine], the IC50 was 501 to 5000 nM. `C[C@H](F)[C@H](N)Cc1cc2c(NCc3c(F)cncc3F)nc(Cl)nn2c1Br` [Compound 4, 6-((2R,3S)-2-amino-3-fluorobutyl)-7-bromo-2-chloro-N-((3,5-difluoropyridin-4-yl)methyl)pyrrolo[2,1-f][1,2,4]triazin-4-amine]: the IC50 lay in the range of 101 to 500 nM.

As for `Cc1c(C[C@@H](N)[C@H](C)F)cc2c(NCc3ccncn3)nc(Cl)nn12` [Compound 6, 6-((2R,3S)-2-amino-3-fluorobutyl)-2-chloro-7-methyl-N-(pyrimidin-4-ylmethyl)pyrrolo[2,1-f][1,2,4]triazin-4-amine], the IC50 lay in the range of 101 to 500 nM.

Turning to `Cc1c(C[C@@H](N)[C@H](C)F)cc2c(NCc3ccncc3F)nc(Cl)nn12` [Compound 7, 6-((2R,3S)-2-amino-3-fluorobutyl)-2-chloro-N-((3-fluoropyridin-4-yl)methyl)-7-methylpyrrolo[2,1-f][1,2,4]triazin-4-amine], the IC50 fell in the range of 101 to 500 nM. Consider `Cc1c(C[C@@H](N)CC2CC2)cc2c(NCc3ccncn3)nc(Cl)nn12` [Compound 9, (S)-6-(2-amino-3-cyclopropylpropyl)-2-chloro-7-methyl-N-(pyrimidin-4-ylmethyl)pyrrolo[2,1-f][1,2,4]triazin-4-amine], for which the IC50 fell in the range of 501 to 5000 nM.
